In BindingDB's records for doi:10.7270/Q2PR7TCX (The Scripps Research Institute Molecular Screening Center, 2007):
pIC50: −log10 of the molar value.

The compounds below were run against Steroidogenic factor 1 (Homo sapiens, UniProt Q13285) (assay: inhibition of SF-1 LBD-driven luciferase – cell-based, CHO-K1, Gal4-SF-1 LBD, luciferase luminescence, counter-screen for RORA inhibitor project, dose response (AID 611)). Conditions: not given.
Steroidogenic factor 1, sequence (Q13285 whole entry, the tested form may be a part): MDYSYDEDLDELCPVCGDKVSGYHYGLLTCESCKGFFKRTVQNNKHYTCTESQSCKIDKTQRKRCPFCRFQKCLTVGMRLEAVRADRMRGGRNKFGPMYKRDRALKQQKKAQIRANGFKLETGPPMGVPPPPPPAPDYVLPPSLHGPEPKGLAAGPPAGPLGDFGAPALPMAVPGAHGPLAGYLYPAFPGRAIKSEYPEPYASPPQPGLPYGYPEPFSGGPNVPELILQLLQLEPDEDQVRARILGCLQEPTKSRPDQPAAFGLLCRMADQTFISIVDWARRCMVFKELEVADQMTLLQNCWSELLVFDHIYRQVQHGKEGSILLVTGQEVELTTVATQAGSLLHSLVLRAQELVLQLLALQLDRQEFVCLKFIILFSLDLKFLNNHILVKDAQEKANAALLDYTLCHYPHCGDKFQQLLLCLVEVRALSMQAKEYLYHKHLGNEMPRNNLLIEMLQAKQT

| Structure (SMILES) | pIC50 |
| --- | --- |
| CCC(NC(=O)Nc1nnc(C(F)(F)F)s1)(C(F)(F)F)C(F)(F)F | 5.56 |
| O=S1(=O)C=C(Sc2nnc(-c3ccccc3)o2)c2ccccc21 | 5.22 |
| CCc1ccc(-c2nnn(CCC(=O)OC)n2)cc1 | 5.20 |
| Cn1ncnc2c(=O)n(C)c(=O)nc1-2 | 6.20 |
| O=C1c2ccccc2C(=O)C1c1ccc2ccccc2n1 | 5.32 |
| [H][C@@]12C[N@@](CCc3c([nH]c4ccccc34)[C@@](C(=O)OC)(c3cc4c(cc3OC)N(C=O)[C@]3([H])[C@]45CC[N@@]4CC=C[C@@](CC)([C@@H](OC(C)=O)[C@]3(O)C(=O)OC)[C@]45[H])C1)C[C@](O)(CC)C2 | 5.68 |
| Clc1ccc(-c2nnc(NC3=NCCCCC3)o2)cc1 | < 5.44 |
| Cc1ccc(N=C2Nc3ccccc3CS2)cc1 | < 4.96 |
| CC(NC(=O)Nc1nnc(C(F)(F)F)s1)(C(F)(F)F)C(F)(F)F [1-(1,1,1,3,3,3-hexafluoro-2-methylpropan-2-yl)-3-[5-(trifluoromethyl)-1,3,4-thiadiazol-2-yl]urea] | 5.25 |
| O=C(CSc1nnc(COc2cccc3cccnc23)o1)N1CCc2ccccc21 [1-(2,3-Dihydro-indol-1-yl)-2-[5-(quinolin-8-yloxymethyl)-[1,3,4]oxadiazol-2-ylsulfanyl]-ethanone] | 5.40 |
| Cc1ccc(-c2nsc3c(N4CCC(C(N)=O)CC4)ncnc23)cc1 [1-(3-p-Tolyl-isothiazolo[4,5-d]pyrimidin-7-yl)-piperidine-4-carboxylic acid amide] | 5.82 |
| CC(C)NCC(O)Cn1c2c(c3ccccc31)CCc1c-2cnn1-c1ccccc1 (stereo unspecified) [1-(3-phenyl-4,5-dihydropyrazolo[4,3-a]carbazol-10-yl)-3-(propan-2-ylamino)-2-propanol] | 5.06 |
| Cc1cccc(NC(=O)Nc2ccc(C#N)cc2)n1 [1-(4-cyanophenyl)-3-(6-methyl-2-pyridinyl)urea] | 5.20 |
| CCn1nc(-c2ccccc2)nc2c(=O)n(C)c(=O)nc1-2 [1-Ethyl-6-methyl-3-phenyl-1H-pyrimido[5,4-e][1,2,4]triazine-5,7-dione] | 5.43 |
| COCCn1c(C)cc(C(=O)CSc2nnc(C)s2)c1C [1-[1-(2-methoxyethyl)-2,5-dimethyl-1H-pyrrol-3-yl]-2-[(5-methyl-1,3,4-thiadiazol-2-yl)thio]ethanone] | 5.46 |
| CCOC(=O)C1CCN(c2ncnc3c2cnn3-c2ccc(Cl)cc2)CC1 [1-[1-(4-chlorophenyl)-4-pyrazolo[3,4-d]pyrimidinyl]-4-piperidinecarboxylic acid ethyl ester] | 5.24 |

Further lines, results first:

| pIC50 | Structure (SMILES) |
| --- | --- |
| 5.20 | CC(C)OCCCNc1ncnc2c1[nH]c1ccc(F)cc12 |
| 5.20 | CCCCOC(=O)c1[nH]c2c(c1C)C(=O)CC(c1cc(OC)c(OC)c(OC)c1)C2 (stereo unspecified) |
| 5.12 | CCCS(=O)(=O)c1nnnn1-c1cccc(OC)c1 [1-(3-methoxyphenyl)-5-(propylsulfonyl)-1H-tetrazole] |
| < 4.96 | CCOc1ccc(S(=O)(=O)n2cnc3cc(C)c(C)cc32)cc1 [1-(4-Ethoxy-benzenesulfonyl)-5,6-dimethyl-1H-benzoimidazole] |
| < 4.96 | COc1ccc(O)c(C(=O)CC(=O)c2ccc(F)cc2)c1 [1-(4-fluorophenyl)-3-(2-hydroxy-5-methoxy-phenyl)propane-1,3-dione] |
| 5.70 | COc1ccc(-n2ncc3c(N4CCCCC4)ncnc32)cc1 [1-(4-methoxyphenyl)-4-(1-piperidinyl)pyrazolo[3,4-d]pyrimidine] |
| 5.35 | COc1cc(CSc2nnnn2-c2ccc(C)cc2)cc(OC)c1OC [1-(4-methylphenyl)-5-[(3,4,5-trimethoxybenzyl)thio]-1H-tetrazole] |

Same assay, conditions: inactive by the depositor's call

| pIC50 | Structure (SMILES) |
| --- | --- |
| 4.78 | COc1ccc2[nH]c(=O)c3c(c2c1)OC(C)(C)C=C3 |
| 4.99 | Cc1ccc2[nH]c3c(N4CCN(Cc5ccc6c(c5)OCO6)CC4)ncnc3c2c1 |
| 4.67 | CCCNc1nc2c(c(=O)n(C)c(=O)n2C)n1Cc1cccc(C)c1 [1,3-Dimethyl-7-(3-methyl-benzyl)-8-propylamino-3,7-dihydro-purine-2,6-dione] |
